In patent US7638145B2, “Cultivated agarwood” (Regents of the University of Minnesota, priority 2001, dated 2009):

Columns and labels:
Assay type in all cases: in vivo
Aquilaria trees [1] = test: Drill wounds treated with different compounds to stimulate agarwood production (Example 5); set-up: Area of discoloration: unit not given here; details: for effect on area of discoloration (in words): Example 5, at the concentrations tested; for Area of discoloration: approx 0.1-0.2 g per drill wound; for microscopic observations of cells around treated wounds: Example 5; for agarwood induction versus control wounds (in words): Example 5 conclusion
Experimental: To test if different types of compounds could stimulate agarwood production, ⅝ inch drill wounds were made approximately 5 cm into the main trunk of young plantation trees and different materials used to treat the drill wounds. Chemicals used were from Sigma Chemicals Inc. St. Louis, Mo. or Mallinckrodt Inc. Paris, Ky. One drill wound per tree received no treatment and others received one of the following treatments:
Chitosan—purified chitin approximately 0.2 g of chitin was added per wound
Formic acid—approximately 0.1 g of formic acid was added per wound
Sodium chloride—approximately 0.2 g added per wound
Cellobiose—approximately 0.2 grams added per wound
Lime—approximately 0.1 g calcium carbonate added per wound
Trees were harvested after 12, 18 and 21 months.

Aquilaria trees [2] = test: Scribed drill wounds with Basidiomycota cultures or chemicals in sawdust, Kon Tum and Nui Cam (Example 9); details: for effect on area of discoloration and agarwood resin (in words): Example 9 conclusion, sodium bisulfite 1:4, salicylic acid 1:2, ferrous chloride 1:4 in sawdust; for Area of discoloration: after 15 months, mean of two trees, chemicals approx 0.5 g in sterile Aquilaria sawdust
Text: Young trees growing at two sites, in home gardens and on agricultural land (Kon Tum, Vietnam and Nui Cam, Vietnam), received 8 wounds per tree. Drill wounds ⅝ inch diameter were drilled approximately 5 cm into the main trunk of each tree in a spiral fashion separated by approximately 20 cm. All drill wounds were scribed to remove a 5×5 cm area of bark around the wound. Fungal treatments consisted of three different types of Basidiomycota obtained from Aquilaria trees in Vietnam. These isolates were not identified to genus but culture morphology indicated they were different genera. Cultures were grown on sterile rice supplemented with malt extract. Cultures were grown for three weeks before inoculation.
Treatments Included: • 1. Control wound receiving sterile rice • 2. Fungal culture 97-14-5 • 3. Fungal culture 97-13-7 • 4. Fungal culture 97-11-25 • 5. Control wound receiving 5 g sterile Aquilaria sawdust • 6. Approximately 0.5 g of a 1:4 ratio of sodium bisulfite and sterile Aquilaria sawdust • 7. Approximately 0.5 g of a 1:2 ratio of salicylic acid in sterile Aquilaria sawdust • 8. Approximately 0.5 g of a 1:4 ratio of ferrous chloride in sterile Aquilaria sawdust
After 15 months two trees were harvested from each location and brought to the laboratory for analyses. The mean area for each type of wound was calculated.

Aquilaria trees [3] = test: Wound types and treatments on plantation trees, Phu Quoc Island, image analyzer area (Example 8); details: for effect on area of discoloration and agarwood resin (in words): Example 8 conclusion; for Area of discoloration/resin: after 15 months, longitudinal plane, mean of 8 wounds, approx 0.3 g of agent mixed with sterile Aquilaria sawdust, drill wound plus 5x5 cm bark removed
Text: Fourteen plantation grown trees on Phu Quoc Island were used to test different treatments. Each tree received 8 wounds that were spiraled up the main trunk of the tree separated by approximately 20 cm. A range of different types of wounds and treatments as well as controls were made on each tree. […] Trees were harvested after 15 months and taken to the laboratory for analyses.
Treatments Included: • 1. A surface wound approximately 5×5 cm was made by cutting the bark and removing the bark tissue to expose the xylem. No drill hole was made. • 3. A ⅝ inch drill wound was made approximately 5 cm into the xylem and a 5×5 cm section of the bark removed around the drill hole and approximately 0.3 g sterile Aquilaria sawdust added to the drill wound. • 4. Same as #3 but with approximately 0.3 g of a 1:1 ratio of ferrous chloride and sterile Aquilaria sawdust added to the drill wound. • 5. Same as #3 with approximately 0.3 g of a 1:2 ratio of NaCl and sterile Aquilaria sawdust added to the drill wound. • 6. Same as #3 but with approximately 0.3 g of a 1:4 ratio of Difco yeast extract and sterile Aquilaria sawdust. • 7. Same as #3 but with approximately 0.3 g of a 1:1 ratio of sodium bisulfite and sterile Aquilaria sawdust. • 8. Same as #3 but with approximately 0.3 g of a 1:2:4 ratio of Difco nutrient broth: Difco malt extract: sterile Aquilaria sawdust.
After 15 months, 8 trees were harvested and brought to the laboratory for analyses. The area of discoloration and resin formation was determined by splitting the tree through the wounded region and area affected measured using an image analyzer. Area (cm^2) was determined for all wounds in the longitudinal plane. Each value is a mean of 8 wounds.

Structure (SMILES)	effect on area of discoloration (in words) (Aquilaria trees [1])	Area of discoloration (Aquilaria trees [1]; after 12 months)	Area of discoloration (Aquilaria trees [1]; after 18 months)	Area of discoloration (Aquilaria trees [1]; after 21 months)	effect on area of discoloration and agarwood resin (in words) (Aquilaria trees [2])	Area of discoloration (Aquilaria trees [2]; Location Kon Tum) [cm^2]	Area of discoloration (Aquilaria trees [2]; Location Nui Cam) [cm^2]	effect on area of discoloration and agarwood resin (in words) (Aquilaria trees [3])	Area of discoloration/resin (Aquilaria trees [3]) [cm^2]	microscopic observations of cells around treated wounds (Aquilaria trees [1])	agarwood induction versus control wounds (in words) (Aquilaria trees [1])
O=C([O-])[O-].[Ca+2] [Lime, calcium carbonate]	do not increase the area of discoloration	10.0	18.7	9.7	–	–	–	–	–	–	–
O=C[C@H](O)[C@@H](O)[C@H](O[C@@H]1O[C@H](CO)[C@@H](O)[C@H](O)[C@H]1O)[C@H](O)CO [Cellobiose]	do not increase the area of discoloration	9.9	20.3	7.4	–	–	–	–	–	–	–
O=C(O)c1ccccc1O [Salicylic acid, salicylic acid]	–	–	–	–	did not produce large areas of discoloration	16.9	25.5	–	–	–	–
[Cl][Fe][Cl] [Ferrous chloride, ferrous chloride]	–	–	–	–	did not produce large areas of discoloration	18.4	23.3	increase the area of discoloration within the tree and the amount of agarwood resin formed	112.5	–	–
O=CO [Formic acid]	–	28.5	18.6	31.8	–	–	–	–	–	react extensively and phloem cells are filled with resin	induce greater amounts of agarwood than the control wounds
O=S([O-])O.[Na+] [Sodium bisulfite, sodium bisulfite]	–	–	–	–	reduced amount of discoloration and agarwood resin	52.3	56.9	increase the area of discoloration within the tree and the amount of agarwood resin formed	182.0	–	–
[Cl-].[Na+] [NaCl, Sodium chloride]	–	49.3	44.7	36.4	–	–	–	increase the area of discoloration within the tree and the amount of agarwood resin formed	48.1	react extensively and phloem cells are filled with resin	induce greater amounts of agarwood than the control wounds
